Where two headings read alike, the source gives them in different places. Each block holds one compound with its values, some of them ahead of it.
Key:
[1] = tested on: methane production in ruminants; settings: cited from earlier work
rumen methanogens [2] = settings: sheep, 0.5 g/day; cited from earlier work
[3] = 3-NOP to adsorbent ratio study; assay type: physicochemical; settings: 24 hr, HPLC
Experimental: Optimal loading of 3-NOP onto adsorbents was determined by varying ratios of 3-NOP to adsorbent. 3-NOP and adsorbent were speed mixed at 2000 rpm for 1 min at the following ratios by weight: 1:1.5, 1:2, 1:2.5. The adsorbed 3-NOP powder mixture was then placed in distilled water at 1% 3-NOP loading. The solution was allowed to equilibrate for 24 hr and then an aliquot was taken for HPLC to determine the reduction in 3-NOP concentration.

[4] = 3-NOP volatility, mass loss open to air; assay type: physicochemical; settings: 500 mg in 5 dram vial open to air, ~18-24C, 15-30% RH, 6 days
Experimental: 3-NOP Volatility:500 mg of 3-NOP in a 5 dram vial was left open to air at ˜18-24C at 15-30% RH over the course of 6 days. Average mass loss is ˜0.25% per day.

rumen methanogens [5] = settings: cited from earlier work
[6] = 3-NOP pH and temperature stability by HPLC; assay type: physicochemical; settings: 1-month, 4-30C, pH 4-10
Description: 3-NOP pH and Temperature Stability: Confirmed via HPLC over a 1-month time period at temperature between 4-30C and pH 4-10.

rumen methanogens [7] = settings: goats, 10 g/day/goat; cited from earlier work
rumen methanogens [8] = settings: 3.5 g/L, continuous fermenters with forages as a substrate; cited from earlier work
[9] = tested on: Methanobrevibacter ruminantium; assay: Methane production of methanogen monocultures treated with sera from vaccinated animals; assay type: cell-based; settings: small molecule inhibitor at 3 different concentrations, FIG. 17B
Experimental: Briefly, BY medium is inoculated with a methanogen-of-interest and combined with serum. The culture tube is crimped closed and pressurized with 80% hydrogen, 20% carbon dioxide. The cultures are incubated and methane in measured intermittently using a GazoMat handheld methane monitoring device. Methane is plotted as a function of time for the various treatment groups and the control group.
200 uL of serum from vaccinated animals were added to sterile anaerobic culture tubes. Open plasma containing tubes were placed into an anaerobic chamber containing 95% nitrogen and 5% hydrogen and allowed to stand 1 hr at ambient temperature. A single seeded culture of methanogen (M. gottschalkii or M. ruminantium) was prepared in BY medium at a volume sufficient to distribute 2.5 mL to each plasma sample and control tube. 2.5 mL of methanogen culture was added to each tube containing the serum, a septa was inserted and crimped into place. Sealed tubes were removed from the anaerobic chamber and each was pressurized with 25 PSI 80% H2, 20% CO2 gas via a hypodermic needle through the septum. Tubes were placed into a 38° C. shaking incubator and periodically removed for methane measurements. Methane measurements in the tube headspace were made with a handheld remote methane detector using a jig to hold the instrument and tube during measurement.

rumen Methanobrevibacter = settings: 5.6 μmol/L, in vitro; rumen bacteria not inhibited; cited from earlier work

- Average Integrated Area of 3-NOP in solution ([3]; 3-NOP:Adsorbent 1:1.5, distilled water at 1% 3-NOP loading): 2566.4
- Average Integrated Area of 3-NOP in solution ([3]; 3-NOP:Adsorbent 1:2, distilled water at 1% 3-NOP loading): 2566.4
- Average Integrated Area of 3-NOP in solution ([3]; 3-NOP:Adsorbent 1:2.5, distilled water at 1% 3-NOP loading): 2566.4
- Average mass loss [4]: ~0.25 % per day
- pH and Temperature Stability [6]: Confirmed
Compound: O=[N+]([O-])OCCCO [3-NOP, 3-nitrooxypropanol]
- Addition amount; maximum methane suppression amount ([1]; 0.08 mg/g dry matter (Alvarez-Hess et al., 2019)): 0.08 mg/g dry matter; 44%
- Addition amount; maximum methane suppression amount ([1]; 60 mg/kg of feed dry matter (Melgar et al., 2020)): 26%/day (Melgar et al., 2020)
- Addition amount; maximum methane suppression amount ([1]; 1.6 g, concentrate pellet (Van Wesemael et al., 2019)): 23%
- Addition amount; maximum methane suppression amount ([1]; 1.6 g, roughage (Van Wesemael et al., 2019)): 28%
- decrease of CH4 production (rumen methanogens [2]): 29%
- decrease of CH4 yield (rumen methanogens [5]; beef cattle, 2.0 g/day/cow): 59%
- persistence of the inhibition (rumen methanogens [5]; beef cattle, 2.0 g/day/cow): up to 112 days
- decrease of CH4 production (rumen methanogens [5]; dairy cows, 40-80 mg/kg feed DM, persistently for up to 84 days): about 30%
- degree of CH4 suppression (rumen methanogens [5]; directly added to the rumen through rumen cannula, daily dose 0.50 or 2.5 g per cow): 7-10%

Compound: O=C(O)/C=C/C(=O)O [fumarate]
- decrease of abundance of methanogens and CH4 production (rumen methanogens [7]): 11.9%
- decrease of CH4 production (rumen methanogens [8]): 38%

Compound: CCCCCCCCCCCC(=O)O [lauric acid]
- methane production rate [9]: reduction is methane production rate

Compound: CC[C@H](C)C(=O)O[C@H]1CCC=C2C=C[C@H](C)[C@H](CC[C@@H]3C[C@@H](O)CC(=O)O3)[C@H]21 [mevastatin]
- growth (rumen Methanobrevibacter): inhibited the growth of all three strains

From US20240189408A1, “COMPOSITIONS AND METHODS FOR REDUCING METHANE EMISSIONS IN RUMINANT POPULATIONS” (Arkea Bio Corp., priority 2022, published 2024)
